Assay results published in article PMC10221029, “Photoprotection and Antiaging Activity of Extracts from Honeybush (Cyclopia sp.)—In Vitro Wound Healing and Inhibition of the Skin Extracellular Matrix Enzymes: Tyrosinase, Collagenase, Elastase and Hyaluronidase” (Pharmaceutics, 2023).

Target: T1, Collagenase from Clostridium histolyticum
T1 construct: gene colG; ColG / ColH not distinguished
Experiment: spectrophotometric FALGPA hydrolysis, […] nm
Format: biochemical
Settings: substrate FALGPA 0.8 mM; 50 mM tricine pH 7.5, 400 mM NaCl, 10 mM CaCl2; 15 min pre-incubation, room temperature

Structure (SMILES): CC1(C)CC[C@]2(C(=O)O)CC[C@]3(C)C(=CC[C@@H]4[C@@]5(C)CC[C@H](O)C(C)(C)[C@@H]5CC[C@]43C)[C@@H]2C1 [oleanolic acid]
- Standard Oleanolic Acid *: 25.66 ± 0.39 µg/mL
